# Laboratory results as given in patent US20140038920A1, “TFEB PHOSPHORYLATION INHIBITORS AND USES THEREOF” (FONDAZIONE TELETHON, priority 2011, published 2014).
# Read-outs that look alike come from different tables or passages of the source.
# Experiments:
# TFEB = experiment: High content TFEB-GFP nuclear translocation assay; format: cell-based; details: Homo sapiens, TFEB-GFP HeLa cells
# Description: Immunoblotting of protein extracts isolated from HeLa cells treated overnight, as indicated. Membranes were probed with antibodies for p-T202/Y204-ERK1/2, ERK1/2, p-T389-S6K, and S6K to measure ERK and mTORC1 activities. […] FLAG immunoblotting of cytosolic and nuclear fractions isolated from TFEB-3×FLAG HeLa cells cultured in amino acid-free media and subsequently stimulated as indicated for at least 3 h. Correct subcellular fractionation was verified with H3 and tubulin antibodies. […] After 3 h at 37° C. in RPMI medium containing one of each of the compounds, the cells were washed, fixed, and stained with DAPI and photographed by using confocal automated microscopy (Opera high content system, Perkin Elmer). […] Scale bars represent 30 μm. […] The EC50 for each compound was calculated using Prism software (see Materials and Methods for details). […] Antibody used were p-T389-S6K, S6K and FLAG. […] HeLa cells stably expressing Flag-3×TFEB were infected with lentiviruses encoding a Short hairpin (Sh-) RNA targeting luciferase (control) or RagC and RagD mRNAs. […] TFEB localization was detected with a FLAG antibody, whereas tubulin and H3 were used as controls for the cytosolic and nuclear fraction, respectively; levels of S6K phosphorylation were used to test RagC and RagD knockdown efficiency.
# After 3 hours at 37° C. in RPMI medium cells were washed, fixed, and stained with DAPI. For the acquisition of the images, ten pictures per each well of the 384-well plate were taken by using confocal automated microscopy (Opera high content system, Perkin Elmer). A dedicated script was developed to perform the analysis of TFEB localization on the different images (Acapella software, Perkin Elmer). The script calculates the ratio value resulting from the average intensity of nuclear TFEB-GFP fluorescence divided by the average of the cytosolic intensity of TFEB-GFP fluorescence. The results were normalized using negative (RPMI medium) and positive (HBSS starvation) control samples in the same plate. The data are represented by the percentage of nuclear translocation at the different concentrations of each compound using Prism software (GraphPad software). The EC50 for each compound was calculated using non-linear regression fitting (Prism software).
# In order to find additional small molecules able to induce the translocation of TFEB from the cytosol to the nucleus, the applicants developed a cell-based high content assay using stable HeLa cells overexpressing TFEB fused to the green fluorescent protein (TFEB-GFP). In the assay imaging of treated cells is acquired by an automated confocal microscope (OPERA system) and the analysis of those images with Acapella image software calculates the ratio of the average of fluorescence intensity of TFEB-GFP between the cytosol and nucleus of the cell (see Materials and methods for details). […] They tested ten concentrations for each inhibitor.
# [1] = tested on: glycosaminoglycan (GAG) accumulation in MSD NSCs; experiment: Alcian blue staining of GAGs in differentiated NSCs from MSD mice (FIG. 22); format: cell-based, mouse; details: glia-differentiated MSD NSCs, 10 nM, 24 hours, versus DMSO
# Description: After 24 hours, the GAG content was determined by alcian blue (AB) staining. Both torins were able to reduce GAG staining in MSD treated cells as compared to DMSO treated cells.
# Neuronal progenitor cells were isolated from cortices of WT and MSD pups (P0) by tissue homogenization using the neural tissue dissociation kit and separation using magnetic sorting of cells expressing the stem cell marker prominin-1 (Miltenyi Biotec Srl). Neuronal progenitor cells were maintained in ESGRO complete medium (Hyclone) in the presence of EGF and FGF2 growth factors (Prepotech). Where indicated, neural stem cells (NSCs) were differentiated by removing growth factors and incubate in ESGRO medium containing 2% of serum for at least 48 h.
# Neuronal progenitor cells were isolated from cortices of WT and MSD pups (P0) by using standard protocols. Neuronal stem cells (NSCs) were fixed in Methacarn (60% Methanol; 10% Acetic Acid; 30% Chloroform) for 15 min at RT. After washing the cells were stained for 3 hours in 1% alcian blue pH 2.5, rinsed in 0.3% acetic acid and water and mounted in 100% for visualization.
# [2] = tested on: vacuolization in MSD cells; experiment: Electron microscopy of vacuolization in differentiated MSD NSCs (FIG. 23); format: cell-based, mouse
# Description: Differentiated NSC were fixed on glutaraldehyde and processed for standard electron microscopy.
# Cells were washed with PBS, fixed in 0.05% glutaraldehyde, and dissolved in 0.2 M Hepes buffer (pH 7.4) for 30 min at room temperature. The cells were then post-fixed for 2 h in OsO4. After dehydration in graded series of ethanol, the cells were embedded in Epon 812 (Fluka) and polymerized at 60° C. for 72 h. Thin sections were cut at the Leica EM UC6, counterstained with uranyl acetate and lead citrate.
# [3] = tested on: Multiple Sulfatase Deficiency (MSD) mice; experiment: Liver GAG accumulation by alcian blue staining in treated MSD mice (FIG. 24); format: in vivo; details: oral gavage 0.3 mg/day/mouse in 50% PEG400, 10 days, n=3
# Description: FIG. 24 Torin 2 reduces GAG accumulation in the liver of MSD mice. MSD mice were treated with placebo (MSD—750) or torin2 (MSD—727) during 10 days (oral administration; 0.3 mg torin 2/day/mouse in 50% PEG400). After the treatment liver tissues were collected and GAG accumulation was determined by alcian blue staining (black spots).
# (§1) Multiple Sulfatase Deficiency (MSD) mice were treated with placebo (n=3) or torin 2 (n=3) during 10 days (gavage-oral administration; 0.3 mg torin 2/day/mouse in 50% PEG400). […] After the treatment liver tissues were collected and GAG accumulation was determined by alcian blue staining.
# Sections of paraffin-embedded liver tissue were stained with 1% Alcian blue (Sigma-Aldrich) and counterstained with Nuclear-Fast red (Sigma-Aldrich).
# [4] = format: in vivo; details: MSD mice, oral gavage 0.3 mg/day/mouse, 10 days
# Description: as §1
structure (smiles),measurement,setting,value
Nc1ccc(-c2ccc3ncc4ccc(=O)n(-c5cccc(C(F)(F)F)c5)c4c3c2)cn1 [TORIN 2],EC50,"TFEB; 3 h, ten concentrations 2.54 nM to 50 μM (FIG. 19D), read-out: EC50, TFEB nuclear translocation",1670 nM
same,EC50,"TFEB; mobilization of cytosolic TFEB to the nucleus, 3 h at 37° C. in RPMI, ten concentrations 50 μM to 2.54 nM, 4 runs, read-out: Average EC50",< 7000 nM
same,alcian blue-stained GAGs,[1],striking reduction
same,cellular vacuolization,[2],reduces vacuolization
same,GAG staining in liver,[3],significant reduction
same,body weight after treatment,[4],no weight differences
same,survival,[4],all the mice treated survived
